According to paper PMC9211397, “High-Throughput Screening Platform To Identify Inhibitors of Protein Synthesis with Potential for the Treatment of Malaria” (Antimicrobial Agents and Chemotherapy, 2022):
Where two headings read alike, the source gives them in different places.

Key:
[1] = target: P. falciparum translation (P. falciparum lysate); assay: P. falciparum in vitro translation (PfIVT) assay, lysate-based, luciferase reporter; format: biochemical, Plasmodium falciparum; conditions: established inhibitors of protein translation; read-out: IC50 values, µM PfIVT (Table S1)
Description: (§1) Our P. falciparum in vitro translation (PfIVT) assay is built upon previously established assays ([14], [17]) and is summarized in Fig. 1A. In this assay, successful reconstitution of Plasmodium protein translation is reported via synthesis of a luciferase reporter. For PfIVT, two independent untranslated regions (UTRs), previously shown to promote strong levels of translation ([17]), were introduced upstream and downstream of the luciferase. The 5′ UTR from P. falciparum histidine-rich protein 3 (PfHrp3) ([18]) was introduced upstream of the reporter gene, and the 3′ UTR from P. falciparum histidine-rich protein 2 (PfHrp2) gene ([19]) was introduced downstream. For the reporter construct to support our complementary human IVT assay (HsIVT), the 5′ UTR was replaced with an internal ribosome entry site (IRES) from encephalomyocarditis virus (EMCV) ([20]) and the 3′ UTR was replaced with a poly(A) tail ([21]). […] Finally, a 30-bp poly(A) tail, present within the vector and downstream of the luciferase gene, was inserted to enhance mRNA stability ([21]).
(§2) Translationally active P. falciparum or human embryonic kidney (HEK) 293F lysates were supplemented with accessory, helper, amino acid, and energy regeneration solutions (see Materials and Methods for details). In vitro translation reactions were initiated by the addition of purified mRNA to each reaction well. Using this basic assay format, a number of parameters were assessed and optimized, namely, assay temperature, time, mRNA concentration, and reaction volume (summarized in Fig. S2 in the supplemental material). In addition, we compared the luminescence signal of the CBG firefly luciferase with CBG99, derived from the click beetle […] ([18]).
3D7 parasites were synchronized following two rounds of treatment with D-sorbitol (5%), as previously described ([40]). The hematocrit was reduced from 5% (for standard culture) to 1.5 to 2% and cultures were transferred into HYPERflasks (Corning). Fresh medium was added once or twice daily. […] Harvested red blood cells (infected) were lysed by incubation in 0.1% (wt/vol) saponin on ice for 10 min with gentle agitation. Free parasites were harvested by centrifugation (2,800 × g, 10 min, 4°C) and washed 3 times in wash buffer (WB; 100 mM potassium acetate, 2.5 mM magnesium acetate, 45 mM HEPES [pH 7.4], 250 mM sucrose, 2 mM dithiothreitol, and 15 μM leupeptin) to remove lysed red blood cell debris. The resulting pellet was resuspended in 1 volume of WB supplemented with cOmplete EDTA-free protease inhibitor cocktail (Roche; 1 tablet/20 mL) and human RNase A inhibitor (Sigma; 5 U/mL). Parasite lysis was achieved by nitrogen cavitation using a prechilled 45-mL Parr cell disruption vessel (1,500 lb/in^2, 60 min, 4°C). To clarify the lysate, it was centrifuged (10,000 × g, 15 min, 4°C), and the supernatant was collected, transferred into fresh tubes, and centrifuged (30,000 × g, 15 min, 4°C). As a quality assurance step for each lysate, the RNA content of the resulting supernatant was determined using a NanoDrop spectrophotometer (Shimadzu). Supernatants with RNA levels of >250 ng/μL were aliquoted (100 μL), flash frozen in liquid nitrogen, and stored at −80°C.

[2] = system: human translation (HEK 293F lysate); assay: Human in vitro translation (HsIVT) assay, HEK 293F lysate, luciferase reporter; format: biochemical; conditions: for effect on translation in the HsIVT assay (Fig. S3A): 10 µM, three technical replicates; for IC50: weighted mean ± SD from at least two biological replicates, read-out: IC50 in the HsIVT assay (Fig. S3B)
Description: as §1, §2
FreeStyle human embryonic kidney (HEK) 293F cells (Thermo Fisher Scientific) were grown in 500-mL polycarbonate Erlenmeyer vented flasks (Corning) containing FreeStyle 293 expression medium (Life Technologies) upon reaching a density of approximately 2 × 10^6. Cells were then centrifuged at 1,000 × g for 10 min at 4°C, the medium was discarded, and the resulting pellet was washed once in buffer II containing 20 U of human placental RNase inhibitor (Sigma-Aldrich) and cOmplete EDTA-free inhibitor cocktail (Roche) before being centrifuged at 2,800 × g for 10 min. Clarified HEK cell lysate was obtained in the same way as described for P. falciparum lysate.
PfIVT and HsIVT reactions (5 μL final volume) were performed in 384-well plates (Corning) containing 50% lysate from cells (either P. falciparum or HEK 293F), 10% amino acid solution (final concentration of 400 μM for each amino acid in 60 mM KOH; biotechrabbit), 10% energy recovery solution (final assay concentrations of 40 mM HEPES [pH 7.4], 1.5 mM ATP, 0.15 mM GTP, […] creatine phosphate, and 40 U/mL creatine phosphokinase), 10% helper solution (final assay concentrations of 200 μM cystine, 2% polyethylene glycol 3000 [PEG 3000], 1 mM spermidine, 0.5 mM folinic acid, and 15 μM leupeptin), 10% supplemental salt solution (22.5 mM HEPES [pH 7.4], 50 mM potassium acetate, 1 mM magnesium acetate, 1 mM DTT, 1 U/mL human placental RNase inhibitor, 0.1 mM leupeptin), and 10% cbg99 luciferase mRNA (3,000 ng/mL). A master mix solution containing all components was prepared on ice prior to assays, and 5 μL was dispensed into wells using an automated Integra VIAFLO 16-channel 12.5-μL pipette.

[3] = system: asexual-blood-stage (ABS) P. falciparum; assay: SYBR green-based P. falciparum asexual growth inhibition assay; format: cell-based; conditions: Plasmodium falciparum, read-out: EC50 values, µM PfABS (Table S1)
Method: The Plasmodium falciparum reference strain 3D7 used throughout this study was cultured as previously described ([39]). Briefly, cultures incubated at 37°C in a humidified atmosphere of 1% O2 and 3% CO2 in balance with N2 were maintained in RPMI 1640 media supplemented with 5% A^+ human red blood cells (provided by the Scottish National Blood Transfusion Service), 25 mM HEPES, 2 mM L-glutamine, 0.5% AlbuMAX II (Gibco), 12 mM sodium bicarbonate, 0.2 mM hypoxanthine, and 20 mg/L gentamicin (pH 7.3).
Our SYBR green asexual-growth assay was based on a previous report ([45]). In brief, 96-well black clear-bottom plates (Corning) were preprinted with a compound and normalized with DMSO to 0.5% of a total assay volume of 100 μL. Highly synchronized ring-stage parasites and blood were added to a 2% final parasitemia and 1% hematocrit. The compounds were incubated with parasites for 72 h prior to freezing at −20°C (to aid cell lysis). The plate was thawed on ice and lysis buffer (20 mM Tris pH 7.5, 5 mM EDTA, 0.008% [w/v] saponin, […]) containing SYBR green I (Thermo Fisher Scientific) at a final concentration of 0.02% (v/v) was added. The 96-well plate was equilibrated to room temperature for 1 h before fluorescence was determined on a TECAN Infinite Pro 200 microplate reader using green fluorescent protein (GFP) filters (excitation, 485 nm; emission, 535 nm). Data were fitted to a two-parameter equation using GraFit version 7.0 (Erithacus Software), and EC50 values were calculated. An excess of the standard inhibitor mefloquine (10 μM) was used to define 0% parasite growth.

Compound | IC50 [1] [µM] | inhibition of translation in HsIVT assay (validation) [2] | effect on translation in the HsIVT assay (Fig. S3A) [2] | IC50 [2] [µM] | EC50 [3] [µM] | EC50 ([3]; established inhibitors of protein translation) [µM]
C[C@@H]1C[C@@H]([C@H](O)CC2CC(=O)NC(=O)C2)C(=O)[C@@H](C)C1 [Cycloheximide, cycloheximide, reference compound] | 0.5 | successfully inhibit translation | ablated activity | 1.2 ± 0.04 | 0.1 | –
O=C(CC1NCCCC1O)Cn1cnc2cc(Br)c(Cl)cc2c1=O (stereo not shown) [Halofuginone, halofuginone, reference compound] | 0.3 | successfully inhibit translation | ablated activity | 1.7 ± 0.04 | – | 0.0004
